Measured values as given in article PMC9413491, “A Novel and Cross-Species Active Mammalian INDY (NaCT) Inhibitor Ameliorates Hepatic Steatosis in Mice with Diet-Induced Obesity” (Metabolites, 2022).
Read-outs that look alike come from different tables or passages of the source.

Key:
[1] = biological target: T1, human NaCT (Homo sapiens, UniProt Q86YT5); experiment: [14C] citrate uptake in HepG2 cells endogenously expressing human NaCT; type: cell-based; settings: HepG2, human NaCT, citrate substrate
T1 construct: citrate uptake into HepG2 cells, which endogenously expressed NaCT; host or cells: HepG2
Source text: (§1) We determined activity on human NaCT by measuring citrate uptake into HepG2 cells, which endogenously expressed NaCT [37] and for mouse Nact, using HEK293 cells recombinantly expressing mouse Nact (HEK-Nact). We cloned the mouse Slc13a5 cDNA encoding Nact as described previously.
(§2) For radiometric [14C] citrate uptake assays, we used Cytostar-T plates (Perkin Elmer#RPNQ0166, Waltham, MA, USA). For each assay, we seeded 20,000 HepG2 cells per well on collagen coated 384-well Cytostar-T plates or 5000 HEK293 cells per well on ploy-D-lysine coated 384-well Cytostar-T plates. On the following day, we changed culture medium to assay buffer: 120 mM NaCl, 5.4 mM KCl, 0.8 mM MgSO4, 5 mM glucose, 1.8 mM CaCl2, 25 mM Hepes, 25 mM MES, pH 6.5 (human) and pH 7.5 (mouse). We preincubated cells with compounds at 37 °C for 20 min, after which we added [14C] citrate (3 µM for HEK cells and 10 µM for HepG2 cells) and incubated cells for 50 min at 37 °C. After cooling down for 15 min at 4 °C, we measured the counts using a Microbeta2 reader system (Perkin Elmer).

[2] = biological target: T2, mouse Nact (Mus musculus, UniProt Q67BT3); experiment: [14C] citrate uptake in HEK293 cells recombinantly expressing mouse Nact; type: cell-based; settings: HEK293 mouse Nact
T2 construct: expressed in transfected cells; host or cells: HEK293 (DSMZ), stably transfected, G418 selection
T2 sequence (Q67BT3 1-572): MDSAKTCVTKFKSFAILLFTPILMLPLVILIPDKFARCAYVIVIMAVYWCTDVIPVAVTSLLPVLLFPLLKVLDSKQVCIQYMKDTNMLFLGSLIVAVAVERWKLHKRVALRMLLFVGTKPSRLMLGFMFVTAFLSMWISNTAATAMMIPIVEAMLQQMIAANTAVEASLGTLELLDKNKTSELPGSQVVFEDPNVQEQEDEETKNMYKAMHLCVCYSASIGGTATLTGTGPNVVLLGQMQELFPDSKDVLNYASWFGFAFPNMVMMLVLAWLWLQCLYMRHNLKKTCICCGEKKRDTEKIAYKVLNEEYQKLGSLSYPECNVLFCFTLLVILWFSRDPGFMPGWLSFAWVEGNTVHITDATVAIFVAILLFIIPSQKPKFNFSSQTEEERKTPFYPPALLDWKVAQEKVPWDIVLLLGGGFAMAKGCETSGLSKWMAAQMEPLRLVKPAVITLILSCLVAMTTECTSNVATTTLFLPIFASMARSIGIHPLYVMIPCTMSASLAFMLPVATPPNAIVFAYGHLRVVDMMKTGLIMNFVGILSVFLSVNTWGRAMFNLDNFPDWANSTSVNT
Source text: as §1, §2

[3] = test system: fatty acid synthesis in HepG2 cells; experiment: Fatty acid synthesis assay ([14C] citrate incorporation) in HepG2 cells; type: cell-based, human
Protocol: We performed the fatty acid synthesis assay in HepG2 cells. We seeded cells into black clear-bottom 96-well plates (Corning 3340 cell plate) 75,000/well and incubated at 37 °C. After 16–24 h, we washed the plates once with 100 µL PBS (+CaCl2 +MgCl2) and added 50 µL assay medium ([…] containing 11 mM glucose, 10 mM HEPES, and 1 nM insulin) per well. Then, we applied test substances in assay medium (10 µL, 5% DMSO) and incubated for 20 min at 37 °C. Thereafter, we added 10 µL assay medium containing [14C] citrate (final concentration 50 µM) and PrestoBlue reagent (1× final concentration; Thermo Fisher Scientific, Waltham, MA, USA) and incubated for 180 min (37 °C, 5% CO2). We measured cell viability (ViewLux instrument, Perkin Elmer). We removed medium by vacuum aspiration and washed cells once with 100 µL PBS (+CaCl2 +MgCl2). We lysed cells with 50 µL lysis buffer (0.1 N NaOH, 0.1 % Triton X-100) and sealed plates with Tape Pads and vortexed. For the saponification reaction, we incubated plates for 16–24 h at 70 °C in a humidified environment. Then, we removed seals and added 200 µL 0.1 N HCl to neutralise the pH. We transferred 150 µL from each into corresponding wells of a 96-well Flash plate (Perkin Elmer) and sealed with TopSeal A (Perkin Elmer). We incubated plates for 4 h at 70 °C and for at least 3 h at room temperature in the dark. We measured [14C] radioactivity (microbeta2, Perkin Elmer). For control samples, we applied 50 mM unlabelled citrate or C75 (Sigma-Aldrich, St. Louis, MO, USA, C5490).

T1 sequence (Q86YT5 whole entry): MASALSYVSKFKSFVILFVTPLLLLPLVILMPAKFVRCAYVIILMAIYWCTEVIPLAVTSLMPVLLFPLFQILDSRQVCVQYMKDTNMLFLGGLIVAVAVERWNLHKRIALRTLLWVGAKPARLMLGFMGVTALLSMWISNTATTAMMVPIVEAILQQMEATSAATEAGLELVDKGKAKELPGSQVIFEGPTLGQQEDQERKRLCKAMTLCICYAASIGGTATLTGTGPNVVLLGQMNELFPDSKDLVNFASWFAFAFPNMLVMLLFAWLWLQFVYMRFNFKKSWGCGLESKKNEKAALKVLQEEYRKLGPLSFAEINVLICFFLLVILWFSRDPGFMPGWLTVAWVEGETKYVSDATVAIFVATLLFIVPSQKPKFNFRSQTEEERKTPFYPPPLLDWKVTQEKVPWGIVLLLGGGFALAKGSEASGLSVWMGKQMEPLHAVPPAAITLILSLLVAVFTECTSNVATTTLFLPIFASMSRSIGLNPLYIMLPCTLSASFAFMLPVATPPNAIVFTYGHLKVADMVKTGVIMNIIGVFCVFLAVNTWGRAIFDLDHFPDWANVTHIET

Row | Compound | IC50 [1] | Effect on citrate uptake for mouse Nact [2] | IC50 ([2]; read-out: IC50 HEK293 citrate uptake (mouse)) | IC50 ([3]; HepG2, read-out: IC50 HepG2 fatty acid synthesis) | IC50 ([3]; HepG2, [14C] citrate incorporation, read-out: IC50 fatty acid synthesis, HepG2)
1 | O=C(NCc1ccc(F)cc1)C1CCN(S(=O)(=O)c2cc(Cl)cc(Cl)c2)CC1 [BI01383298, reference compound] | 78 nM | no effects | > 50000 nM | 30 nM | –
2 | CC(C)(C)c1ccc(CC[C@@](O)(CC(=O)O)C(=O)O)cc1 [PF-06649298, reference compound] | – | – | – | – | 39000 nM
